Legend:
[1] = ZnPc standard, cited from earlier work
BEAS-2B cells = assay: MTT cell viability of BEAS-2B cells, dark and 660 nm LED irradiation; type: cell-based, human; details: Eu bis up to 50 μM, Lu bis above 2.5 μM, ZnPc 0.25 μM or above
[2] = ZnPc standard, cited from earlier work; remark: listed apart in the source
A549 cells = assay: MTT cell viability of A549 cells, dark and 660 nm LED irradiation; type: cell-based, human; details: 24 hours, 660 nm 30 min
[3] = DMSO, ZnPc standard; cited from earlier work

Structure (SMILES): [Zn+2].c1ccc2c(c1)-c1nc-2nc2[n-]c(nc3nc([n-]c4nc(n1)-c1ccccc1-4)-c1ccccc1-3)c1ccccc21 [ZnPc, unsubstituted zinc(II)phthalocyanine]
- Indirect ΦΔ in DMSO ([1]; fraction): 0.670 (ref. [65])
- ΦΔ (%) Indirect in DMSO ([1]; singlet oxygen quantum yield, DMSO): 67%
- effect of light irradiation on viability (BEAS-2B cells): reduced the viability
- Direct ΦΔ in THF ([2]; fraction): 0.530 (ref. [66])
- ΦΔ (%) Direct in THF ([2]; singlet oxygen quantum yield, THF): 53%
- effect of light irradiation on viability/toxicity (A549 cells): high toxicity in the sub-μM range
- ΦF (fluorescence quantum yield) [3]: 0.180 (ref. [64])
